# Experimental data published in ChEMBL document CHEMBL2073874, “The multidrug resistance transporter ABCG2 (breast cancer resistance protein 1) effluxes Hoechst 33342 and is overexpressed in hematopoietic stem cells” (Clin Cancer Res, 2002).
# Biological target: T1, Broad substrate specificity ATP-binding cassette transporter ABCG2 (Homo sapiens, UniProt Q9UNQ0)
# T1 sequence (Q9UNQ0 whole entry): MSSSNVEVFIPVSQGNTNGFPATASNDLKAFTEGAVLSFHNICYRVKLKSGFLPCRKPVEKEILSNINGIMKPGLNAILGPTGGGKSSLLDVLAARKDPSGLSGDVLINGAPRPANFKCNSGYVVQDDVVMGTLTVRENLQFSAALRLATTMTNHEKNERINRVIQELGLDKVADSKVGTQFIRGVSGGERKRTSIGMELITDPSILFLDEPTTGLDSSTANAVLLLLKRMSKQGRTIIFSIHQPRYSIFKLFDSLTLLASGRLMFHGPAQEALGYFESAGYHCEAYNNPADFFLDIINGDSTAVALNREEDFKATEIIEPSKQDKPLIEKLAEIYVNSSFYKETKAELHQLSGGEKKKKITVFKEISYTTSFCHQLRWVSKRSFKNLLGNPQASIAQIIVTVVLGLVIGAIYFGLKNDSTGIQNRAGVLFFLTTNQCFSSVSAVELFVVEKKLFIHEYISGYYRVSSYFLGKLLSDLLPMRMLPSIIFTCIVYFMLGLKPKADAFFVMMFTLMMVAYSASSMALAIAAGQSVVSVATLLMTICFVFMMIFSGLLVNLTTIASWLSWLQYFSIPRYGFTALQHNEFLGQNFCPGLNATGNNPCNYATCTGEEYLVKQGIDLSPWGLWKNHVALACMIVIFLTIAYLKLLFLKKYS
# Experiment: TP_TRANSPORTER: efflux in BCRP-expressing MCF-7 cells
# Assay type: functional, cell-based
# Conditions: mcf7
compound,measurement,value
CCOc1ccc(-c2nc3cc(-c4nc5cc(N6CCN(C)CC6)ccc5[nH]4)ccc3[nH]2)cc1,Activity,substrate [+]
